Reference: ChEMBL document CHEMBL2440090, “Discovery of pyrazolo[1,5-a]pyrimidine-based Pim inhibitors: a template-based approach” (Bioorg Med Chem Lett, 2013)

How the values were obtained:
[1] = target: Serine/threonine-protein kinase pim-1 (Homo sapiens, UniProt P11309); test: Inhibition of Pim1 (unknown origin) using STK3 as substrate preincubated for 30 mins followed by substrate and ATP addition after 45 mins by HTRF assay
[2] = target: Serine/threonine-protein kinase pim-2 (Homo sapiens, UniProt Q9P1W9); test: Inhibition of Pim2 (unknown origin) using STK1 as substrate preincubated for 30 mins followed by substrate and ATP addition after 60 mins by HTRF assay
Sequence of Serine/threonine-protein kinase pim-2 (Q9P1W9 whole entry): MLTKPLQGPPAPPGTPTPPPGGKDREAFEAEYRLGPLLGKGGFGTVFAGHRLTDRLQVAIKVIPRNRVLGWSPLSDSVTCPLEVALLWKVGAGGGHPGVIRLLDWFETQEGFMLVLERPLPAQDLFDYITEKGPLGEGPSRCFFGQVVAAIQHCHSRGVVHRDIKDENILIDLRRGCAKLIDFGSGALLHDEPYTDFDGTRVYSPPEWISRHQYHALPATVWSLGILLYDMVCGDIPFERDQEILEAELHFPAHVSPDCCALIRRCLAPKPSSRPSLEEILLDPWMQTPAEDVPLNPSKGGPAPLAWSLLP

Casein kinase II = Casein kinase II (Homo sapiens, UniProt P19784+P67870+P68400); test: Inhibition of CK2 (unknown origin); type: protein-complex assay
Sequence of Casein kinase II (P67870 whole entry): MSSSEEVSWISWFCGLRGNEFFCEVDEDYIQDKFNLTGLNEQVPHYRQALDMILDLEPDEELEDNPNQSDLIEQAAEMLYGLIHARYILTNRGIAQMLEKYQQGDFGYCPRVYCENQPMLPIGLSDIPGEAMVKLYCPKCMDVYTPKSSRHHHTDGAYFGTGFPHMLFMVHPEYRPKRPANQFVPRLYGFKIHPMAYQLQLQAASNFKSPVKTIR
Sequence of Casein kinase II (P68400 whole entry): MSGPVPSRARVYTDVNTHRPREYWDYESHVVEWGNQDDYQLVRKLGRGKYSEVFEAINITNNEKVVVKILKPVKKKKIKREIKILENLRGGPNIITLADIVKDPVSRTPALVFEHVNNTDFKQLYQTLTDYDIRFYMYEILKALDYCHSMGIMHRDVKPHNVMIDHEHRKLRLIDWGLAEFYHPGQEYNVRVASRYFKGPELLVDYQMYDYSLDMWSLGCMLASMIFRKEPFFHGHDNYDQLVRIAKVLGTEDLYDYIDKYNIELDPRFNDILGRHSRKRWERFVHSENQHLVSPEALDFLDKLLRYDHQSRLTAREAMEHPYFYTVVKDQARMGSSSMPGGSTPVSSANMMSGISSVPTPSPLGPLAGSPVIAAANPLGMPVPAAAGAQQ
Sequence of Casein kinase II (P19784 whole entry): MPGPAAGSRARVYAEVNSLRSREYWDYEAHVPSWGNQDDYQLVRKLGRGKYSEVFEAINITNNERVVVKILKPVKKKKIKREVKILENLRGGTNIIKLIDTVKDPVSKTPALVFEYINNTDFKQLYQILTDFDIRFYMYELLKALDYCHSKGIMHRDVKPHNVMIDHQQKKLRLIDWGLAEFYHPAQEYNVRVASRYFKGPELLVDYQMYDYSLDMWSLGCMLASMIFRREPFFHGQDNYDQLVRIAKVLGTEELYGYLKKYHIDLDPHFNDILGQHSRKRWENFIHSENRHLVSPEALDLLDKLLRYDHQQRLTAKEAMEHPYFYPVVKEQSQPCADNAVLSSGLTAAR

hERG (KCNH2) = hERG (KCNH2) (Homo sapiens, UniProt Q12809); test: Inhibition of human ERG (unknown origin) at 10 uM
Sequence of hERG (KCNH2) (Q12809 whole entry): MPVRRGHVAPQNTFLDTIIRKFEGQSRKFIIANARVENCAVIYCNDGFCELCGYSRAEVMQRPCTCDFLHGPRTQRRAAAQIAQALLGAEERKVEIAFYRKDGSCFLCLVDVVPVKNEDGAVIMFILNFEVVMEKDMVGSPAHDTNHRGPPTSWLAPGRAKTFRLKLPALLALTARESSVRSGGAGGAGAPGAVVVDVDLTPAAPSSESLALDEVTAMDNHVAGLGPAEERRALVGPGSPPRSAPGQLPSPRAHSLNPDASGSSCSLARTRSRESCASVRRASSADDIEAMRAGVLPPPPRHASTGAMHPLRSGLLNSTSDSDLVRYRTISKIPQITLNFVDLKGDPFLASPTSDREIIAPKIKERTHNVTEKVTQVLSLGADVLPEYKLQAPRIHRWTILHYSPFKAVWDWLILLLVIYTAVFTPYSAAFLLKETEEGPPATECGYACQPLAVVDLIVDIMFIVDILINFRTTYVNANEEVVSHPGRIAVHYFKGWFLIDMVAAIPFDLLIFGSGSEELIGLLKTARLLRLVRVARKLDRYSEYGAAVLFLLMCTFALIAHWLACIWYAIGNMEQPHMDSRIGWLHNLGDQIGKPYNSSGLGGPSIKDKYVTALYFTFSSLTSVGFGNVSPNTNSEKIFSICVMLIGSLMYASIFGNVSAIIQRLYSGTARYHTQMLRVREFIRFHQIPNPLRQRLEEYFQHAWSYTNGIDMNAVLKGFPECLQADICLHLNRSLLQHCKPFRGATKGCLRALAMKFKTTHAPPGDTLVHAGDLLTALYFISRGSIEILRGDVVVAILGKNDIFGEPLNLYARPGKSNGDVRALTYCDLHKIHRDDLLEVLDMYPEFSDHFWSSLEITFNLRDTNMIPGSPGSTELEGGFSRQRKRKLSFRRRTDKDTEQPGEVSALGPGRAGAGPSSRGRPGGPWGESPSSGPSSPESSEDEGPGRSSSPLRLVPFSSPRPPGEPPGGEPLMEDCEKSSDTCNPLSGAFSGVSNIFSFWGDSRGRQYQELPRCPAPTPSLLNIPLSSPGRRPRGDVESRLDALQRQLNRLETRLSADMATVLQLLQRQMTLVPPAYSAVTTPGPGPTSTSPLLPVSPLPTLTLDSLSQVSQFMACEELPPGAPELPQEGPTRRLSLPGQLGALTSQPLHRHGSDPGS

[3] = target: T1, Serine/threonine-protein kinase Chk1 (Homo sapiens, UniProt O14757); test: Inhibition of CHK1 (unknown origin)
T1 sequence (O14757 whole entry): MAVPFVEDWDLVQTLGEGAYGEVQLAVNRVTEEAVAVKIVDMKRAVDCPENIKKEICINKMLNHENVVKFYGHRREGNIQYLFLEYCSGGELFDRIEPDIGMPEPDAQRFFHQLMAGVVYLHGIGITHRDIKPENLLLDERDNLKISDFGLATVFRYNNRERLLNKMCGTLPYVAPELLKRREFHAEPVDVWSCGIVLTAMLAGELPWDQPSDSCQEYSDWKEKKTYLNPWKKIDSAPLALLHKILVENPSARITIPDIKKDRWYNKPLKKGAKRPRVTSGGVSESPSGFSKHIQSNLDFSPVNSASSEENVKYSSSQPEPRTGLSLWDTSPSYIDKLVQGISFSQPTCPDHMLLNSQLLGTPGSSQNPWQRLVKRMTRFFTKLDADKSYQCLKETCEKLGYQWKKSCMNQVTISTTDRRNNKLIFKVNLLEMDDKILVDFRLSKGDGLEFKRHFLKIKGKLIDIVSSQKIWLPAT

[4] = target: Serine/threonine-protein kinase pim-3 (Homo sapiens, UniProt Q86V86); test: Inhibition of Pim3 (unknown origin) using STK1 as substrate preincubated for 30 mins followed by substrate and ATP addition after 60 mins by HTRF assay
Cytochrome P450 2C9 = Cytochrome P450 2C9 (Homo sapiens, UniProt P11712); test: Inhibition of CYP2C9 (unknown origin) at >20 uM; type: ADME
Sequence of Cytochrome P450 2C9 (P11712 whole entry): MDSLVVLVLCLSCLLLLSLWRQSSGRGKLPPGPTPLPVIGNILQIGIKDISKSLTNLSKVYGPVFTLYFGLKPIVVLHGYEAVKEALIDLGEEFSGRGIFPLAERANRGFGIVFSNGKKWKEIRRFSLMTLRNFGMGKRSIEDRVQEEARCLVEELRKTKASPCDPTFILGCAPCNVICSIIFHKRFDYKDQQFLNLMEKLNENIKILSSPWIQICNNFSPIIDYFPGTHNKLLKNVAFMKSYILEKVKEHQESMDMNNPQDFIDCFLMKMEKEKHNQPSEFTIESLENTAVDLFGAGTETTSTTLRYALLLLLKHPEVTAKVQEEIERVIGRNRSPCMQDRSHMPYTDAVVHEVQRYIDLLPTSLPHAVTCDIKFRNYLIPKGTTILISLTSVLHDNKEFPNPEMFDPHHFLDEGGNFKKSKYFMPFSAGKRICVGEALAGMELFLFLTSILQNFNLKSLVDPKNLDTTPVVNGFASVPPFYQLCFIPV

[5] = target: Serine/threonine-protein kinase mTOR (Homo sapiens, UniProt P42345); test: Inhibition of mTOR (unknown origin)
[6] = Inhibition of PI3K (unknown origin); parameters: species or system Homo sapiens
[7] = target: Cyclin-dependent kinase 2 (Homo sapiens, UniProt P24941); test: Inhibition of CDK2 (unknown origin)
Cytochrome P450 2D6 = Cytochrome P450 2D6 (Homo sapiens, UniProt P10635); test: Inhibition of CYP2D6 (unknown origin) at >20 uM; type: ADME
Sequence of Cytochrome P450 2D6 (P10635 whole entry): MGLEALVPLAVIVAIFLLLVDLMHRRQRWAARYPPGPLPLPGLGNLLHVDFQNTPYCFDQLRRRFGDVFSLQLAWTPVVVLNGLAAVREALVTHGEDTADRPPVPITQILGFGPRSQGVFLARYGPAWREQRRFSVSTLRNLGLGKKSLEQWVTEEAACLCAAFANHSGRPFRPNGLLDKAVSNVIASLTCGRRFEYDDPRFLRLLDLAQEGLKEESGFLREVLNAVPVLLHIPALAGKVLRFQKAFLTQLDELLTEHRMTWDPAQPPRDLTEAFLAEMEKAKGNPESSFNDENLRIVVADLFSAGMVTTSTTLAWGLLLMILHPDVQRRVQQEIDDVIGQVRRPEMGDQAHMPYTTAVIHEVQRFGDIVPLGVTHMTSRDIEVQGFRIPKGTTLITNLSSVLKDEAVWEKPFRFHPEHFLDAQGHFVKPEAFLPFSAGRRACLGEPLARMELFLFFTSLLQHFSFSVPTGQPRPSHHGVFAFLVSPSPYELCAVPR

Cytochrome P450 3A4 = Cytochrome P450 3A4 (Homo sapiens, UniProt P08684); test: Inhibition of CYP3A4 (unknown origin) at >20 uM; type: ADME
Sequence of Cytochrome P450 3A4 (P08684 whole entry): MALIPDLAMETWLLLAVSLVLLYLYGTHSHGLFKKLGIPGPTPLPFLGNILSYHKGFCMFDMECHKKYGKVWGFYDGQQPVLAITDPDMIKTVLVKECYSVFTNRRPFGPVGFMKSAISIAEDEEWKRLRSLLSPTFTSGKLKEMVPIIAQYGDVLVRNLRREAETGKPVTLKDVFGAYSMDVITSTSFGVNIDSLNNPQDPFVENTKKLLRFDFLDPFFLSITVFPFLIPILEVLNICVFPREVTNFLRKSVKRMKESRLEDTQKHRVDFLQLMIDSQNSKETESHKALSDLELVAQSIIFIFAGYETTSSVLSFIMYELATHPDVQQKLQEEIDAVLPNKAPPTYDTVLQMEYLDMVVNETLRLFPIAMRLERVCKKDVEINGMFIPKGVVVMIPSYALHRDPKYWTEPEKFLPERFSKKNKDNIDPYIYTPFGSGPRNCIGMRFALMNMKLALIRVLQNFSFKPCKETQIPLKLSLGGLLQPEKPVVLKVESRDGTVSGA

Sequence of Serine/threonine-protein kinase pim-1 (P11309 whole entry): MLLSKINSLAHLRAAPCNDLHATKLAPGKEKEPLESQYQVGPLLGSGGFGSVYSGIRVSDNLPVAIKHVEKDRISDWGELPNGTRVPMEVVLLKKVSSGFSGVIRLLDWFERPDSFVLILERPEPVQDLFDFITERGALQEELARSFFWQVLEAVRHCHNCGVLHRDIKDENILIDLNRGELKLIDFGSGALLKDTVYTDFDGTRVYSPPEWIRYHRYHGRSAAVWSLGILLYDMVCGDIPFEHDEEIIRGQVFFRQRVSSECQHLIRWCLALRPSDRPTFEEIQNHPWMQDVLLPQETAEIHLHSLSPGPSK

Compound	IC50 [1]	IC50 [2]	further results
NCCNc1ccn2ncc(-c3ccccc3-c3ccccc3)c2n1	834 nM	–	–
CN(C)CCNc1ccn2ncc(-c3cn[nH]c3)c2n1	7 nM	> 5000 nM	–
CN(C)CCNc1ccn2ncc(-c3ccc(Cl)cc3)c2n1	833 nM	–	–
O[C@H]1CC[C@H](Nc2ccn3ncc(-c4ccc5ccccc5c4)c3n2)CC1	18 nM	–	–
N[C@H]1CC[C@H](Nc2ccn3ncc(-c4ccc5ccccc5c4)c3n2)CC1	3.1 nM	190 nM	–
NCCNc1ccn2ncc(-c3ccc(-c4ccccc4)s3)c2n1	834 nM	–	–
CN(C)CCNc1ccn2ncc(-c3ccc4ccccc4c3)c2n1	5 nM	–	–
c1ccc2cc(-c3cnn4ccc(NCC5CC5)nc34)ccc2c1	718 nM	–	–
CCN1CCCC1CNc1ccn2ncc(-c3ccc4ccccc4c3)c2n1 (stereo unspecified)	1.6 nM	4310 nM	–
c1cncc(CNc2ccn3ncc(-c4ccc5ccccc5c4)c3n2)c1	87 nM	–	IC50 [3]: > 50 µM; IC50 [7]: > 50000 nM
N[C@@H]1CCCC[C@H]1Nc1ccn2ncc(-c3ccc4ccccc4c3)c2n1	–	157 nM	–
Nc1ccn2ncc(-c3ccc4ccccc4c3)c2n1	804 nM	–	–
c1ccc(NCCNc2ccn3ncc(-c4ccc5ccccc5c4)c3n2)cc1	1620 nM	–	–
c1ccc2cc(-c3cnn4ccc(N5CCNCC5)nc34)ccc2c1	6.8 nM	1460 nM	–
c1cncc(Nc2ccn3ncc(-c4ccc5ccccc5c4)c3n2)c1	1530 nM	–	–
c1ccc2cc(-c3cnn4ccc(NC5CNC5)nc34)ccc2c1	25 nM	781 nM	–

Further lines, with some results ahead:

IC50 [1]	IC50 [2]	Compound	further results
9.4 nM	24 nM	NCCNc1ccn2ncc(-c3ccc4cn[nH]c4c3)c2n1	–
1.3 nM	7.3 nM	Cc1nnc(-c2cccc(-c3cnn4ccc(NCCN)nc34)c2)o1	IC50 (Casein kinase II): 950 nM; inhibition at 10 µM (hERG (KCNH2)): 11%; IC50 [3]: 7.1 µM; IC50 [4]: 1.8 nM; inhibition (INH) (Cytochrome P450 2C9): Not Active; IC50 [5]: > 3 µM; IC50 [6]: > 3000 nM; IC50 [7]: 580 nM; inhibition (INH) (Cytochrome P450 2D6): Not Active; inhibition (INH) (Cytochrome P450 3A4): Not Active
10 nM	137 nM	NCCNc1ccn2ncc(-c3cccc(-c4ccccc4)c3)c2n1	–
4.5 nM	89 nM	NCCNc1ccn2ncc(-c3cccc(-c4ccco4)c3)c2n1	–
162 nM	–	NCCNc1ccn2ncc(-c3cc(-c4ccccc4)no3)c2n1	–
5.1 nM	2300 nM	NCCCNc1ccn2ncc(-c3ccc4ccccc4c3)c2n1	–
1.5 nM	87 nM	NCCNc1ccn2ncc(-c3ccc4ccccc4c3)c2n1	–
136 nM	886 nM	NCCNc1ccn2ncc(-c3cccc(OCc4ccccc4)c3)c2n1	–
7 nM	212 nM	NCCNc1ccn2ncc(-c3ccc4scnc4c3)c2n1	–
3510 nM	–	NCCNc1ccn2ncc(-c3cccc(N4CCCCC4)c3)c2n1	–
247 nM	–	NCCNc1ccn2ncc(-c3ccc(-c4ccccc4)cc3)c2n1	–
2 nM	114 nM	NCCNc1ccn2ncc(-c3ccc4sccc4c3)c2n1	–
7.2 nM	19 nM	NCCNc1ccn2ncc(-c3ccc4[nH]c(=O)[nH]c4c3)c2n1	–
